From ChEMBL document CHEMBL3588794, “Discovery of LRRK2 inhibitors using sequential in silico joint pharmacophore space (JPS) and ensemble docking” (Bioorg Med Chem Lett, 2015)

What was measured:
[1] = target: Leucine-rich repeat serine/threonine-protein kinase 2 (Homo sapiens, UniProt Q5S007); test: Inhibition of wild type LRRK2 (unknown origin) assessed as inhibition of LRRKtide phosphorylation after 120 mins by radiometric assay in presence of [gamma-33P]-ATP
[2] = target: Leucine-rich repeat serine/threonine-protein kinase 2 (Homo sapiens, UniProt Q5S007, G2019S); test: Inhibition of LRRK2 G2019S mutant (unknown origin)
[3] = target: Tyrosine-protein kinase JAK2 (Homo sapiens) (UniProt O60674); test: Inhibition of JAK2 JH1 catalytic domain (unknown origin) at 10 uM relative to control
Tyrosine-protein kinase JAK2 (Homo sapiens), sequence (O60674 whole entry, the tested form may be a part): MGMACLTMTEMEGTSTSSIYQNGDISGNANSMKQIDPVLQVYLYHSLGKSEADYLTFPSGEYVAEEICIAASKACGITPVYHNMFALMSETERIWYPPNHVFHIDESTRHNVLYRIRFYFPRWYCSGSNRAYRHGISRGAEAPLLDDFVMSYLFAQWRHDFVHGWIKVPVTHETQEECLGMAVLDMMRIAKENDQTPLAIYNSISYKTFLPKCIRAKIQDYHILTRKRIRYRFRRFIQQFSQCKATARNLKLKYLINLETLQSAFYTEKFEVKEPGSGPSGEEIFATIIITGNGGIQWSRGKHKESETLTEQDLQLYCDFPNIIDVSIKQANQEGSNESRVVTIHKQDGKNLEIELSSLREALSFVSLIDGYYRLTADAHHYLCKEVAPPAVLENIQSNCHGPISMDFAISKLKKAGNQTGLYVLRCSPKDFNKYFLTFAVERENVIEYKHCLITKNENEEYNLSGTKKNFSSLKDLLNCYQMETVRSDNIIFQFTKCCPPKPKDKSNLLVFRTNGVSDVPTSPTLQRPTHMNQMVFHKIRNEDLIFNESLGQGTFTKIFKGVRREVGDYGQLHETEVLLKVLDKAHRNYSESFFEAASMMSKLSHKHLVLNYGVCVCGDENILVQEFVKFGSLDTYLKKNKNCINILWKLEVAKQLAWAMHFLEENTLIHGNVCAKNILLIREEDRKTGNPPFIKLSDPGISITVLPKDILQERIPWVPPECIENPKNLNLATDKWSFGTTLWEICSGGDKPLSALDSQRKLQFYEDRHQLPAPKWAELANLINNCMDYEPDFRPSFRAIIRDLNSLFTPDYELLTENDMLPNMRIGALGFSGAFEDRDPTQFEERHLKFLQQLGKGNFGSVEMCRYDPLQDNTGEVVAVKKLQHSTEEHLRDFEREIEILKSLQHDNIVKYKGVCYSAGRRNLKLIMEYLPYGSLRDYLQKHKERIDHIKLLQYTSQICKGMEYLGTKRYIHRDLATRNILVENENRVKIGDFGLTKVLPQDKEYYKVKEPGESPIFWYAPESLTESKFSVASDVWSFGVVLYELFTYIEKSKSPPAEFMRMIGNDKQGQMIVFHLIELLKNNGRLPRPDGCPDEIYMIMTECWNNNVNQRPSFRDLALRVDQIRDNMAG

Leucine-rich repeat serine/threonine-protein kinase 2 (Homo sapiens, UniProt Q5S007, G2019S), sequence (Q5S007 whole entry G2019S, the tested form may be a part): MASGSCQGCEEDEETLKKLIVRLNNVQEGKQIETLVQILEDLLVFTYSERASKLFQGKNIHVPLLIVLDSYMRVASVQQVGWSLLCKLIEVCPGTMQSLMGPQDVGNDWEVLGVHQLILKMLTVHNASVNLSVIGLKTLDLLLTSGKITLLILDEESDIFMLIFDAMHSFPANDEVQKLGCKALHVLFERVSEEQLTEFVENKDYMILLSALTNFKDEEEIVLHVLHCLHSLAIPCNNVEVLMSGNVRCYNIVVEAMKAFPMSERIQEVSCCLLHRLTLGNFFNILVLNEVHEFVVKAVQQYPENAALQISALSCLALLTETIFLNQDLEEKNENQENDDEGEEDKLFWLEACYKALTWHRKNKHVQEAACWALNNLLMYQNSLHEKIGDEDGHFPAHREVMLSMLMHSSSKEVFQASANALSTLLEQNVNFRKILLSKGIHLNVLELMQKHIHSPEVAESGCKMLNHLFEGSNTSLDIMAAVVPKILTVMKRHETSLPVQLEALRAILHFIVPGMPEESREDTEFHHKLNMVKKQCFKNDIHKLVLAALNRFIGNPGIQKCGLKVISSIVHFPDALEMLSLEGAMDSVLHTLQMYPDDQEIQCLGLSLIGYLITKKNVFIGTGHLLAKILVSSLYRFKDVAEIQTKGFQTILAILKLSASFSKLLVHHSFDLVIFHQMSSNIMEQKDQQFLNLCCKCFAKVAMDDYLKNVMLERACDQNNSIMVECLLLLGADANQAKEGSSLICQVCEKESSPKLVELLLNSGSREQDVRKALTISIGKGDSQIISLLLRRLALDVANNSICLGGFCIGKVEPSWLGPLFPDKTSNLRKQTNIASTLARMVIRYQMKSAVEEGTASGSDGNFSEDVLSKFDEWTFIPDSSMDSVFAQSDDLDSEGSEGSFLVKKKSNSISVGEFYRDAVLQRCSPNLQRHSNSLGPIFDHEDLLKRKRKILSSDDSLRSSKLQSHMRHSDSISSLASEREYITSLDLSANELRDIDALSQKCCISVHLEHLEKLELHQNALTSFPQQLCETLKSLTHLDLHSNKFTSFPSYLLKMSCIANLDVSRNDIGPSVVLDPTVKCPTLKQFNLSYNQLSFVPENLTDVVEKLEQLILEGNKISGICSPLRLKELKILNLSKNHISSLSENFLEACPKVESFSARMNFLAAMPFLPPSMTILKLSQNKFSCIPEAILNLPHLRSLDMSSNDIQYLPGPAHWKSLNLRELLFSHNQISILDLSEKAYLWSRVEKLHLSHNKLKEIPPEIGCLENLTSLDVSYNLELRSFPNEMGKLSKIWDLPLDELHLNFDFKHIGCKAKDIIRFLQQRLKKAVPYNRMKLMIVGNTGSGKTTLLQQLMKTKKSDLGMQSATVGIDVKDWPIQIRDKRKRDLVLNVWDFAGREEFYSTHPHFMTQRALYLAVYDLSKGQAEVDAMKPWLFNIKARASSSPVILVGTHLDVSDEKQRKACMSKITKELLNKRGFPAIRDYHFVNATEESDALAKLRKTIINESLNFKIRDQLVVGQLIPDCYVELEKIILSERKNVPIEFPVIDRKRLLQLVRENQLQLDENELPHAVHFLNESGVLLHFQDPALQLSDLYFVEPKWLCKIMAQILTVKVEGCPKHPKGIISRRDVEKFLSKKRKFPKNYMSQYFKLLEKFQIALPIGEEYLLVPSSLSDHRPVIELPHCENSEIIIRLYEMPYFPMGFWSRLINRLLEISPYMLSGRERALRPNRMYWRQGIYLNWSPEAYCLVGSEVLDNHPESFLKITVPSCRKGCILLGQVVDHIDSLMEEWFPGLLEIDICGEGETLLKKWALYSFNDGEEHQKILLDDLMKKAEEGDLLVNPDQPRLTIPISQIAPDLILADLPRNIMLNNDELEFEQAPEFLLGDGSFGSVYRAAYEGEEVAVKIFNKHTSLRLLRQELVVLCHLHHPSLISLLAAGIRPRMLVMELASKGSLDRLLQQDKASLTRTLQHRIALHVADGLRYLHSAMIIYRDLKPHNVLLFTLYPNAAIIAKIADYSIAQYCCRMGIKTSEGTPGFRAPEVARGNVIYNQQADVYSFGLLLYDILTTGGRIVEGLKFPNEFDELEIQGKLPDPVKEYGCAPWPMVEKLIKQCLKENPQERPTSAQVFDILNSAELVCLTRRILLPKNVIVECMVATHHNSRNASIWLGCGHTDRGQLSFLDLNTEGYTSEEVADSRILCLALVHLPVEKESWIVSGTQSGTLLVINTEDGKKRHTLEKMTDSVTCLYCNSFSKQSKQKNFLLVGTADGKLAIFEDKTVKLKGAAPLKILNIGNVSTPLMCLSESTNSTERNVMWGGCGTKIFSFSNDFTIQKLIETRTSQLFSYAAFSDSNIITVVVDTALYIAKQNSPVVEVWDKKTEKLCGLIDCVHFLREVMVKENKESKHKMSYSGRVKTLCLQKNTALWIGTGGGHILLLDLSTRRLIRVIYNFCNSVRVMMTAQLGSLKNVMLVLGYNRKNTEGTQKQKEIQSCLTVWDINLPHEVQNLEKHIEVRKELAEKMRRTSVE
Leucine-rich repeat serine/threonine-protein kinase 2 (Homo sapiens, UniProt Q5S007), sequence (Q5S007 whole entry): as the sequence (Q5S007 whole entry G2019S, the tested form may be a part) above, with S2019G counted along it

IC50 [1] [µM] | IC50 [2] [µM] | inhibition [3] [%] | Compound
4.6 | 3.3 | – | Cc1ccc(NC(=O)c2ccc(CN3CCNCC3)cc2)cc1Nc1nccc(-c2cccnc2)n1
4.8 | 1.9 | – | CC(c1ccc(NC(=O)c2cc(C3CC3)[nH]n2)cc1)N1CCOCC1 (configuration not stated)
2.8 | 2 | – | O=C(NCCO)c1ccc(Nc2nc(-c3ccccc3)c3cc(Cl)ccc3n2)cc1
– | – | 74 | N#Cc1ccc(Nc2ccc3[nH]c(=O)[nH]c3c2)c([N+](=O)[O-])c1
